Measured values as given in patent publication US9247759B2, “Identification of human T2R receptors that respond to bitter compounds that elicit the bitter taste in compositions, and the use thereof in assays to identify compounds that inhibit (block) bitter taste in compositions and use thereof” (SENOMYX, INC., priority 2007, dated 2016).

Key:
hT2R8 = hT2R8 (Homo sapiens (Human), UniProt Q9NYW2); assay: hT2R8 antagonist high-throughput FLIPR assay, stable cell line with G16g44, agonist andrographolide; format: cell-based; conditions: read-out: IC50 on hT2R8 bitter receptor
Procedure, shortened: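 HEK293 cells stably co-expressing hT2R8 and chimeric G16g44, read on FLIPR. Test compounds added together with andrographolide (200 μM), which drives the receptor to 70–80% of maximal activity; antagonism seen as reduced agonist response.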

Chain of hT2R8 (Q9NYW2 whole entry): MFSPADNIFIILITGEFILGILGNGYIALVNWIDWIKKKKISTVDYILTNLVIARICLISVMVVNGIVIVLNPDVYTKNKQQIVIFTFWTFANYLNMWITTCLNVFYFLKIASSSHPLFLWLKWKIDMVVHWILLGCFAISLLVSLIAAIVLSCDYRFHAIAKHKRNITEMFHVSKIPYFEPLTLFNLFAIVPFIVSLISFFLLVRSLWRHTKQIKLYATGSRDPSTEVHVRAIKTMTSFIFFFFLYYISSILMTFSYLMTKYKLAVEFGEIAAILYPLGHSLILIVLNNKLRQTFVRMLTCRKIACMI

Row | melting point | IC50 (hT2R8) | SMILES
1 | 135 to 137 °C | 570 nM | Cc1noc(C)c1Cn1cc(NC(=O)c2ccccn2)cn1 [Example 4-1, N-(1-((3,5-dimethylisoxazol-4-yl)methyl)-1H-pyrazol-4-yl)picolinamide]
2 | 202 to 204 °C | 2090 nM | Cc1noc(C)c1Cn1cc(NC(=O)c2scc(S(C)(=O)=O)c2Cl)cn1 [Example 4-2, 3-chloro-N-(1-((3,5-dimethylisoxazol-4-yl)methyl)-1H-pyrazol-4-yl)-4-(methylsulfonyl)thiophene-2-carboxamide]
3 | 187 to 188 °C | 460 nM | COc1cc(CC(=O)Nc2cnn(Cc3c(C)noc3C)c2)cc(OC)c1O [Example 4-4, N-(1-((3,5-dimethylisoxazol-4-yl)methyl)-1H-pyrazol-4-yl)-2-(4-hydroxy-3,5-dimethoxyphenyl)acetamide]

Row | SMILES | melting point | IC50 (hT2R8)
4 | Cc1noc(C)c1Cn1cc(NC(=O)[C@@H](C)c2ccccc2)cn1 [Example 4-3, (S)—N-(1-((3,5-dimethylisoxazol-4-yl)methyl)-1H-pyrazol-4-yl)-2-phenylpropanamide] | 108 to 110 °C | 410 nM
